According to patent US6737383B1, “Herbicidal oxadiazolidines” (priority 1999, dated 2004):

Tests used:
[1] = test system: pigweed; experiment: Test B pre/postemergence pigweed; format: in vivo, Amaranthus retroflexus
Procedure, shortened: (§1)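 Herbicidal effect was estimated by eye on a ten-point control scale after plants spent twelve to sixteen days in a greenhouse following soil or foliar treatment. Foliar sprays targeted plants at one to four leaves; all doses were formulated in a non-phytotoxic solvent with surfactant.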

[2] = test system: wheat; experiment: Test B pre/postemergence wheat; format: in vivo, Triticum aestivum
Procedure, shortened: as §1

[3] = test system: cocklebur; experiment: Test B pre/postemergence cocklebur; format: in vivo, Xanthium strumarium
Procedure, shortened: as §1

[4] = test system: sugar beet; experiment: Test B pre/postemergence sugar beet; format: in vivo, Beta vulgaris
Procedure, shortened: as §1

[5] = test system: rape; experiment: Test B pre/postemergence rape; format: in vivo, Brassica napus
Procedure, shortened: as §1

[6] = test system: wild oat; experiment: Test B pre/postemergence wild oat; format: in vivo, Avena fatua
Procedure, shortened: as §1

[7] = test system: bamyardgrass; experiment: Test B flood test barnyardgrass; format: in vivo, Echinochloa crus-galli
Procedure, shortened: (§2)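 Flood test on plants grown to the 2-leaf stage; treated plants kept in greenhouse twelve to sixteen days, then visually rated against controls on a 0 (no effect) to 10 (complete control) scale.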

[8] = test system: corn; experiment: Test B pre/postemergence corn; format: in vivo, Zea mays
Procedure, shortened: as §1

[9] = test system: giant foxtail; experiment: Test B pre/postemergence giant foxtail; format: in vivo, Setaria faberii
Procedure, shortened: as §1

[10] = test system: surinam grass; experiment: Test B pre/postemergence surinam grass; format: in vivo, Brachiaria decumbens
Procedure, shortened: as §1

[11] = test system: crabgrass; experiment: Test B pre/postemergence crabgrass; format: in vivo, Digitaria sanguinalis
Procedure, shortened: as §1

[12] = test system: purple nutsedge; experiment: Test B pre/postemergence purple nutsedge; format: in vivo, Cyperus rotundus
Procedure, shortened: as §1

[13] = test system: smallflower flatsedge; experiment: Test B flood test smallflower flatsedge; format: in vivo, Cyperus difformis
Procedure, shortened: as §2

[14] = test system: rice; experiment: Test B flood test rice; format: in vivo, Oryza sativa
Procedure, shortened: as §2

[15] = test system: duck salad; experiment: Test B flood test duck salad; format: in vivo, Heteranthera limosa
Procedure, shortened: as §2

[16] = test system: morningglory; experiment: Test B pre/postemergence morningglory; format: in vivo, Ipomoea hederacea
Procedure, shortened: as §1

[17] = Preemergence, Rate 62 g/ha, scale of 0 to 10 where 0 is no effect and 10 is complete control
[18] = Preemergence, Rate 250 g/ha, scale of 0 to 10 where 0 is no effect and 10 is complete control
[19] = Preemergence, Rate 500 g/ha, scale of 0 to 10 where 0 is no effect and 10 is complete control
[20] = Rate 125 g/ha, Postemergence, scale of 0 to 10 where 0 is no effect and 10 is complete control
[21] = Rate 125 g/ha, Preemergence, scale of 0 to 10 where 0 is no effect and 10 is complete control
[22] = Rate 250 g/ha, Postemergence, scale of 0 to 10 where 0 is no effect and 10 is complete control
[23] = Rate 500 g/ha, Postemergence, scale 0 to 10, 0 no effect, 10 complete control
[24] = Rate 62 g/ha, Postemergence, scale of 0 to 10 where 0 is no effect and 10 is complete control
[25] = Rate 62 g/ha, headed Pre-emergence (flood test species), scale 0 to 10 (0 no effect, 10 complete control)
[26] = Rate 125 g/ha, Pre-emergence, flood test species, scale 0 to 10 where 0 is no effect and 10 is complete control
[27] = Rate 250 g/ha, Pre-emergence, flood-test species, scale 0 to 10, 0 is no effect, 10 is complete control
[28] = Rate 500 g/ha, Pre-emergence, flood test species, scale 0 to 10 (0 no effect, 10 complete control)

Cc1cccc(C)c1-n1c(=O)on(C(=O)N(C(C)C)C2C=CCCC2)c1=O (stereo not shown) [Compound 273]
Redroot pigweed plant response rating [1, 17]: 0 | Redroot pigweed plant response rating [1, 18]: 0 | Plant response rating, Redroot pigweed [1, 19]: 0 | Redroot pigweed plant response rating [1, 20]: 0 | Redroot pigweed plant response rating [1, 21]: 0 | Plant response rating, Redroot pigweed [1, 22]: 2 | Redroot pigweed plant response rating [1, 23]: 4 | Wheat plant response rating [2, 17]: 0 | Wheat plant response rating [2, 18]: 0 | Plant response rating, Wheat [2, 19]: 0 | Wheat plant response rating [2, 20]: 0 | Wheat plant response rating [2, 21]: 0 | Plant response rating, Wheat [2, 22]: 0 | Wheat plant response rating [2, 23]: 0 | Cocklebur plant response rating [3, 17]: 0 | Cocklebur plant response rating [3, 18]: 0 | Plant response rating, Cocklebur [3, 19]: 0 | Cocklebur plant response rating [3, 24]: 0 | Cocklebur plant response rating [3, 20]: 0 | Cocklebur plant response rating [3, 21]: 0 | Plant response rating, Cocklebur [3, 22]: 0 | Cocklebur plant response rating [3, 23]: 0 | Sugarbeets plant response rating [4, 17]: 0 | Sugarbeets plant response rating [4, 18]: 6 | Plant response rating, Sugarbeets [4, 19]: 7 | Sugarbeets plant response rating [4, 20]: 0 | Sugarbeets plant response rating [4, 21]: 0 | Plant response rating, Sugarbeets [4, 22]: 0 | Sugarbeets plant response rating [4, 23]: 0 | Rape plant response rating [5, 17]: 0 | Rape plant response rating [5, 18]: 0 | Plant response rating, Rape [5, 19]: 0 | Rape plant response rating [5, 20]: 0 | Rape plant response rating [5, 21]: 0 | Plant response rating, Rape [5, 22]: 0 | Rape plant response rating [5, 23]: 0 | Wild oats plant response rating [6, 17]: 0 | Wild oats plant response rating [6, 18]: 0 | Plant response rating, Wild oats [6, 19]: 3 | Wild oats plant response rating [6, 20]: 0 | Plant response rating, Wild oats [6, 22]: 0 | Wild oats plant response rating [6, 23]: 0 | Barnyardgrass plant response rating [7, 25]: 0 | Barnyardgrass plant response rating [7, 26]: 4 | Barnyardgrass plant response rating [7, 27]: 4 | Barnyardgrass plant response rating [7, 28]: 3 | Corn plant response rating [8, 17]: 0 | Corn plant response rating [8, 18]: 0 | Plant response rating, Corn [8, 19]: 0 | Corn plant response rating [8, 24]: 0 | Corn plant response rating [8, 20]: 0 | Corn plant response rating [8, 21]: 0 | Plant response rating, Corn [8, 22]: 0 | Corn plant response rating [8, 23]: 0 | Giant foxtail plant response rating [9, 17]: 7 | Giant foxtail plant response rating [9, 18]: 8 | Plant response rating, Giant foxtail [9, 19]: 9 | Giant foxtail plant response rating [9, 20]: 0 | Giant foxtail plant response rating [9, 21]: 8 | Plant response rating, Giant foxtail [9, 22]: 0 | Giant foxtail plant response rating [9, 23]: 2 | B. signalgrass plant response rating [10, 17]: 0 | B. signalgrass plant response rating [10, 18]: 2 | Plant response rating, B. signalgrass [10, 19]: 3 | B. signalgrass plant response rating [10, 24]: 0 | B. signalgrass plant response rating [10, 20]: 0 | B. signalgrass plant response rating [10, 21]: 0 | Plant response rating, B. signalgrass [10, 22]: 0 | B. signalgrass plant response rating [10, 23]: 0 | Crabgrass plant response rating [11, 17]: 2 | Crabgrass plant response rating [11, 18]: 6 | Plant response rating, Crabgrass [11, 19]: 9 | Crabgrass plant response rating [11, 20]: 0 | Crabgrass plant response rating [11, 21]: 6 | Plant response rating, Crabgrass [11, 22]: 1 | Crabgrass plant response rating [11, 23]: 3 | Nutsedge plant response rating [12, 18]: 0 | Plant response rating, Nutsedge [12, 19]: 0 | Nutsedge plant response rating [12, 20]: 0 | Plant response rating, Nutsedge [12, 22]: 0 | Nutsedge plant response rating [12, 23]: 0 | S. Flatsedge plant response rating [13, 25]: 0 | S. Flatsedge plant response rating [13, 26]: 0 | S. Flatsedge plant response rating [13, 27]: 0 | S. Flatsedge plant response rating [13, 28]: 0 | Rice plant response rating [14, 25]: 0 | Rice plant response rating [14, 26]: 0 | Rice plant response rating [14, 27]: 0 | Rice plant response rating [14, 28]: 0 | Ducksalad plant response rating [15, 25]: 0 | Ducksalad plant response rating [15, 26]: 0 | Ducksalad plant response rating [15, 27]: 0 | Ducksalad plant response rating [15, 28]: 0 | Morningglory plant response rating [16, 17]: 0 | Morningglory plant response rating [16, 18]: 0 | Plant response rating, Morningglory [16, 19]: 0 | Morningglory plant response rating [16, 20]: 0 | Morningglory plant response rating [16, 21]: 0 | Plant response rating, Morningglory [16, 22]: 2 | Morningglory plant response rating [16, 23]: 3

CC(C)N(C(=O)n1oc(=O)n(C2CC2)c1=O)c1ccc(F)cc1 [Compound 242]
Redroot pigweed plant response rating [1, 17]: 9 | Redroot pigweed plant response rating [1, 18]: 10 | Plant response rating, Redroot pigweed [1, 19]: 10 | Redroot pigweed plant response rating [1, 24]: 0 | Redroot pigweed plant response rating [1, 21]: 10 | Plant response rating (0 to 10; 0 is no effect, 10 is complete control), Redroot pigweed ([1]; Rate 250 g/ha, Postemergence): 4 | Redroot pigweed plant response rating [1, 23]: 8 | Wheat plant response rating [2, 17]: 5 | Wheat plant response rating [2, 18]: 9 | Plant response rating, Wheat [2, 19]: 10 | Wheat plant response rating [2, 24]: 4 | Wheat plant response rating [2, 21]: 7 | Wheat plant response rating [2, 23]: 8 | Cocklebur plant response rating [3, 17]: 2 | Cocklebur plant response rating [3, 18]: 2 | Plant response rating, Cocklebur [3, 19]: 3 | Cocklebur plant response rating [3, 24]: 5 | Cocklebur plant response rating ([3]; Rate 125 g/ha, Postemergence, scale 0 to 10): 5 | Plant response rating (0 to 10; 0 is no effect, 10 is complete control), Cocklebur ([3]; Rate 250 g/ha, Postemergence): 7 | Cocklebur plant response rating [3, 23]: 7 | Sugarbeets plant response rating [4, 17]: 3 | Plant response rating, Sugarbeets [4, 19]: 8 | Sugarbeets plant response rating [4, 24]: 0 | Sugarbeets plant response rating [4, 21]: 7 | Sugarbeets plant response rating [4, 23]: 8 | Rape plant response rating [5, 17]: 0 | Rape plant response rating [5, 18]: 10 | Plant response rating, Rape [5, 19]: 10 | Rape plant response rating [5, 24]: 0 | Rape plant response rating [5, 21]: 6 | Plant response rating (0 to 10; 0 is no effect, 10 is complete control), Rape ([5]; Rate 250 g/ha, Postemergence): 4 | Rape plant response rating [5, 23]: 8 | Wild oats plant response rating [6, 17]: 7 | Wild oats plant response rating [6, 18]: 9 | Plant response rating, Wild oats [6, 19]: 10 | Wild oats plant response rating [6, 24]: 0 | Wild oats plant response rating [6, 21]: 9 | Wild oats plant response rating [6, 23]: 8 | Barnyardgrass plant response rating [7, 25]: 0 | Barnyardgrass plant response rating [7, 26]: 0 | Barnyardgrass plant response rating [7, 27]: 0 | Barnyardgrass plant response rating [7, 28]: 0 | Corn plant response rating [8, 17]: 0 | Corn plant response rating [8, 18]: 6 | Plant response rating, Corn [8, 19]: 9 | Corn plant response rating [8, 24]: 0 | Corn plant response rating [8, 21]: 0 | Plant response rating (0 to 10; 0 is no effect, 10 is complete control), Corn ([8]; Rate 250 g/ha, Postemergence): 0 | Corn plant response rating [8, 23]: 6 | Giant foxtail plant response rating [9, 17]: 10 | Giant foxtail plant response rating [9, 18]: 10 | Plant response rating, Giant foxtail [9, 19]: 10 | Giant foxtail plant response rating [9, 24]: 7 | Giant foxtail plant response rating [9, 21]: 10 | Plant response rating (0 to 10; 0 is no effect, 10 is complete control), Giant foxtail ([9]; Rate 250 g/ha, Postemergence): 8 | Giant foxtail plant response rating [9, 23]: 9 | B. signalgrass plant response rating [10, 17]: 6 | B. signalgrass plant response rating [10, 18]: 9 | Plant response rating, B. signalgrass [10, 19]: 10 | B. signalgrass plant response rating [10, 24]: 1 | B. signalgrass plant response rating ([10]; Rate 125 g/ha, Postemergence, scale 0 (no effect) to 10 (complete control)): 8 | B. signalgrass plant response rating [10, 21]: 9 | Plant response rating (0 to 10; 0 is no effect, 10 is complete control), B. signalgrass ([10]; Rate 250 g/ha, Postemergence): 8 | B. signalgrass plant response rating [10, 23]: 9 | Crabgrass plant response rating [11, 17]: 9 | Crabgrass plant response rating [11, 18]: 10 | Plant response rating, Crabgrass [11, 19]: 10 | Crabgrass plant response rating [11, 24]: 8 | Crabgrass plant response rating [11, 21]: 10 | Plant response rating (0 to 10; 0 is no effect, 10 is complete control), Crabgrass ([11]; Rate 250 g/ha, Postemergence): 9 | Crabgrass plant response rating [11, 23]: 9 | Nutsedge plant response rating [12, 17]: 10 | Nutsedge plant response rating [12, 18]: 10 | Plant response rating, Nutsedge [12, 19]: 10 | Nutsedge plant response rating [12, 24]: 0 | Nutsedge plant response rating [12, 21]: 10 | Nutsedge plant response rating [12, 23]: 5 | S. Flatsedge plant response rating [13, 25]: 0 | S. Flatsedge plant response rating [13, 26]: 0 | S. Flatsedge plant response rating [13, 27]: 0 | S. Flatsedge plant response rating [13, 28]: 0 | Rice plant response rating [14, 25]: 0 | Rice plant response rating [14, 26]: 0 | Rice plant response rating [14, 27]: 0 | Rice plant response rating [14, 28]: 0 | Ducksalad plant response rating [15, 25]: 0 | Ducksalad plant response rating [15, 26]: 0 | Ducksalad plant response rating [15, 27]: 0 | Ducksalad plant response rating [15, 28]: 0 | Morningglory plant response rating [16, 17]: 2 | Morningglory plant response rating [16, 18]: 5 | Plant response rating, Morningglory [16, 19]: 10 | Morningglory plant response rating [16, 24]: 0 | Morningglory plant response rating [16, 21]: 2 | Plant response rating (0 to 10; 0 is no effect, 10 is complete control), Morningglory ([16]; Rate 250 g/ha, Postemergence): 7 | Morningglory plant response rating [16, 23]: 8
